Laboratory results as given in ChEMBL document CHEMBL2440042, “Anti-proliferative activity of hydnocarpin, a natural lignan, is associated with the suppression of Wnt/β-catenin signaling pathway in colon cancer cells” (Bioorg Med Chem Lett, 2013).
Active and inactive are the calls of the source. The calls are words filed in the database; no cut-off is given here.

Columns and labels:
SW480 [1] = assay: Inhibition of Wnt/beta-catenin signaling pathway in human SW480 cells assessed as beta-catenin protein expression at 20 uM after 12 hrs by Western blotting analysis relative to vehicle-treated control
SW480 [2] = assay: Inhibition of Wnt/beta-catenin signaling pathway in human SW480 cells assessed as beta-catenin protein expression at 10 uM after 12 hrs by Western blotting analysis relative to vehicle-treated control
SW480 [3] = assay: Effect on total beta-catenin protein level in human SW480 cells at 5 to 20 uM after 12 to 24 hrs by Western blotting analysis relative to vehicle-treated control; type: functional, cell-based
HEK293 = assay: Inhibition of Wnt/beta-catenin signaling pathway in human HEK293 cells after 24 hrs by dual luciferase reporter gene assay relative to vehicle-treated control; type: cell-based
SW480 [4] = assay: Inhibition of Wnt/beta-catenin signaling pathway in human SW480 cells assessed as increase in phosphorylation of beta-catenin at Ser45 after 24 hrs by Western blotting analysis relative to vehicle-treated control; type: cell-based
SW480 [5] = assay: Inhibition of Wnt/beta-catenin signaling pathway in human SW480 cells assessed as dvl1 protein expression at 5 uM after 12 hrs by Western blotting analysis relative to vehicle-treated control
SW480 [6] = assay: Inhibition of Wnt/beta-catenin signaling pathway in human SW480 cells assessed as dvl1 protein expression at 20 uM after 12 hrs by Western blotting analysis relative to vehicle-treated control
SW480 [7] = assay: Inhibition of Wnt/beta-catenin signaling pathway in human SW480 cells assessed as dvl2 protein expression at 10 uM after 12 hrs by Western blotting analysis relative to vehicle-treated control
SW480 [8] = assay: Inhibition of Wnt/beta-catenin signaling pathway in human SW480 cells assessed as dvl2 protein expression at 20 uM after 12 hrs by Western blotting analysis relative to vehicle-treated control
SW480 [9] = assay: Inhibition of Wnt/beta-catenin signaling pathway in human SW480 cells assessed as GSK3-beta protein expression at 5 uM after 12 hrs by Western blotting analysis relative to vehicle-treated control
SW480 [10] = assay: Inhibition of Wnt/beta-catenin signaling pathway in human SW480 cells assessed as GSK3-beta protein expression at 10 uM after 12 hrs by Western blotting analysis relative to vehicle-treated control
SW480 [11] = assay: Inhibition of Wnt/beta-catenin signaling pathway in human SW480 cells assessed as GSK3-beta protein expression at 20 uM after 12 hrs by Western blotting analysis relative to vehicle-treated control
SW480 [12] = assay: Inhibition of Wnt/beta-catenin signaling pathway in human SW480 cells assessed as CK1-alpha protein expression at 5 uM after 12 hrs by Western blotting analysis relative to vehicle-treated control
SW480 [13] = assay: Inhibition of Wnt/beta-catenin signaling pathway in human SW480 cells assessed as CK1-alpha protein expression at 10 uM after 12 hrs by Western blotting analysis relative to vehicle-treated control
SW480 [14] = assay: Inhibition of Wnt/beta-catenin signaling pathway in human SW480 cells assessed as Axin2 protein expression at 5 uM after 12 hrs by Western blotting analysis relative to vehicle-treated control
SW480 [15] = assay: Inhibition of Wnt/beta-catenin signaling pathway in human SW480 cells assessed as Axin2 protein expression at 10 uM after 12 hrs by Western blotting analysis relative to vehicle-treated control
SW480 [16] = assay: Inhibition of Wnt/beta-catenin signaling pathway in human SW480 cells assessed as beta-catenin protein expression at 5 uM after 24 hrs by Western blotting analysis relative to vehicle-treated control
SW480 [17] = assay: Inhibition of Wnt/beta-catenin signaling pathway in human SW480 cells assessed as phosphorylated (S45) beta-catenin protein expression at 5 uM after 24 hrs by Western blotting analysis relative to vehicle-treated control
SW480 [18] = assay: Inhibition of Wnt/beta-catenin signaling pathway in human SW480 cells assessed as dvl1 protein expression at 5 uM after 24 hrs by Western blotting analysis relative to vehicle-treated control
SW480 [19] = assay: Inhibition of Wnt/beta-catenin signaling pathway in human SW480 cells assessed as dvl1 protein expression at 10 uM after 24 hrs by Western blotting analysis relative to vehicle-treated control
SW480 [20] = assay: Inhibition of Wnt/beta-catenin signaling pathway in human SW480 cells assessed as dvl1 protein expression at 20 uM after 24 hrs by Western blotting analysis relative to vehicle-treated control
SW480 [21] = assay: Inhibition of Wnt/beta-catenin signaling pathway in human SW480 cells assessed as dvl2 protein expression at 5 uM after 24 hrs by Western blotting analysis relative to vehicle-treated control
SW480 [22] = assay: Inhibition of Wnt/beta-catenin signaling pathway in human SW480 cells assessed as dvl2 protein expression at 10 uM after 24 hrs by Western blotting analysis relative to vehicle-treated control
SW480 [23] = assay: Inhibition of Wnt/beta-catenin signaling pathway in human SW480 cells assessed as dvl2 protein expression at 20 uM after 24 hrs by Western blotting analysis relative to vehicle-treated control
SW480 [24] = assay: Inhibition of Wnt/beta-catenin signaling pathway in human SW480 cells assessed as dvl3 protein expression at 5 uM after 24 hrs by Western blotting analysis relative to vehicle-treated control
SW480 [25] = assay: Inhibition of Wnt/beta-catenin signaling pathway in human SW480 cells assessed as dvl3 protein expression at 10 uM after 24 hrs by Western blotting analysis relative to vehicle-treated control
SW480 [26] = assay: Inhibition of Wnt/beta-catenin signaling pathway in human SW480 cells assessed as dvl3 protein expression at 20 uM after 24 hrs by Western blotting analysis relative to vehicle-treated control
SW480 [27] = assay: Inhibition of Wnt/beta-catenin signaling pathway in human SW480 cells assessed as GSK3-beta protein expression at 5 uM after 24 hrs by Western blotting analysis relative to vehicle-treated control
SW480 [28] = assay: Inhibition of Wnt/beta-catenin signaling pathway in human SW480 cells assessed as CK1-alpha protein expression at 5 uM after 24 hrs by Western blotting analysis relative to vehicle-treated control
SW480 [29] = assay: Inhibition of Wnt/beta-catenin signaling pathway in human SW480 cells assessed as CK1-alpha protein expression at 10 uM after 24 hrs by Western blotting analysis relative to vehicle-treated control
SW480 [30] = assay: Inhibition of Wnt/beta-catenin signaling pathway in human SW480 cells assessed as CK1-alpha protein expression at 20 uM after 24 hrs by Western blotting analysis relative to vehicle-treated control
SW480 [31] = assay: Inhibition of Wnt/beta-catenin signaling pathway in human SW480 cells assessed as Axin2 protein expression at 5 uM after 24 hrs by Western blotting analysis relative to vehicle-treated control
SW480 [32] = assay: Inhibition of Wnt/beta-catenin signaling pathway in human SW480 cells assessed as Axin2 protein expression at 10 uM after 24 hrs by Western blotting analysis relative to vehicle-treated control
SW480 [33] = assay: Inhibition of Wnt/beta-catenin signaling pathway in human SW480 cells assessed as Axin1 protein expression at 5 uM after 24 hrs by Immunoblotting analysis relative to vehicle-treated control

Compound: COc1cc([C@H]2Oc3ccc(-c4cc(=O)c5c(O)cc(O)cc5o4)cc3O[C@@H]2CO)ccc1O (relative stereo)
- fold change (FC) (SW480 [1]): 0.6
- fold change (FC) (SW480 [2]): 0.7
- Activity (SW480 [3]): inactive
- inhibition (HEK293): Dose-dependent effect
- inhibition (SW480 [4]): Dose-dependent effect
- fold change (FC) (SW480 [5]): 1.2
- fold change (FC) (SW480 [6]): 1.1
- fold change (FC) (SW480 [7]): 1
- fold change (FC) (SW480 [8]): 0.9
- fold change (FC) (SW480 [9]): 0.8
- fold change (FC) (SW480 [10]): 0.8
- fold change (FC) (SW480 [11]): 0.9
- fold change (FC) (SW480 [12]): 0.9
- fold change (FC) (SW480 [13]): 0.9
- fold change (FC) (SW480 [14]): 1
- fold change (FC) (SW480 [15]): 3.4
- fold change (FC) (SW480 [16]): 0.8
- fold change (FC) (SW480 [17]): 1.4
- fold change (FC) (SW480 [18]): 1
- fold change (FC) (SW480 [19]): 1
- fold change (FC) (SW480 [20]): 1.2
- fold change (FC) (SW480 [21]): 1.2
- fold change (FC) (SW480 [22]): 1.2
- fold change (FC) (SW480 [23]): 1.2
- fold change (FC) (SW480 [24]): 1.2
- fold change (FC) (SW480 [25]): 1
- fold change (FC) (SW480 [26]): 1.1
- fold change (FC) (SW480 [27]): 1.1
- fold change (FC) (SW480 [28]): 1.1
- fold change (FC) (SW480 [29]): 1.2
- fold change (FC) (SW480 [30]): 1.1
- fold change (FC) (SW480 [31]): 1.8
- fold change (FC) (SW480 [32]): 3.2
- fold change (FC) (SW480 [33]): 1.4
